# From patent publication US20020094524A1, “Compositions and methods for inhibiting HIV infection” (priority 2000, published 2002)
# Test system: HIV gag mRNA
# Experiment: HIV gag mRNA by RT-PCR / real time RT-PCR in infected MDM
# Format: cell-based
# Method: HIV Infection: After 2 h incubation with or without the reagents described above, the cells were infected with equal amounts of cell-free HIV based on p24 antigen content (20 ng/10^6 cells) overnight, and then washed to remove unbound virus. Fresh media containing SP and/or CP-96,345 or anti-SP antibody were added to the MDM as described above. The culture media and the reagents were replaced twice weekly. The culture supernatants were harvested for HIV reverse transcriptase (RT) activity determinations. After HIV infection, the MDM were incubated for 8 to 12 days. At the termination of the experiments, cellular RNA was extracted for assessment of HIV gag gene expression using RT-PCR or real time RT-PCR assays.
# Total RNA was isolated from human peripheral blood MDM (10^6 cells) using Tri-Reagent (Molecular Research Center, Cincinnati, Ohio) as we previously reported (16).
# Reverse transcription: Total RNA (1 μg) was reverse transcribed using Reverse Transcription System (Promega, Madison, Wis.) with the specific primers (antisense) for HIV gag (5′-[…]-[…]-3′; SEQ ID NO: 1) (27) or CCR5 (5′-[…]-3′; SEQ ID NO: 2) (32) for 1 h at 42° C. RT reactions was terminated by incubating the reaction mixture at 99° C. for 5 min and then kept at 4° C. The resulting cDNA was used as a template for PCR amplification or real time PCR quantification. […]
compound,measurement,setting,value
"COc1ccccc1CN[C@H]1C2CCN(CC2)[C@H]1C(c1ccccc1)c1ccccc1 [CP-96,345, 2S, 3S)-cis-2-(diphenylmethyl)-N-[(2-methoxyphenyl)-methyl]-1-azabicyclo[[2.2.2]octan-3-amine]",HIV gag mRNA expression (RT-PCR),"10^−11 to 10^−7 M, 12 days after infection, concentration-dependent (FIG. 3 top panel)",potently inhibited
same,HIV gag gene mRNA expression (real time RT-PCR copy numbers),"all three concentrations tested, 12 days after infection (FIG. 3)",significantly suppress
